According to ChEMBL document CHEMBL5500342, “Rational molecular design converting fascaplysin derivatives to potent broad-spectrum inhibitors against bacterial pathogens via targeting FtsZ” (Eur J Med Chem, 2024):
Calls of active or inactive are those of the source. The calls are words filed in the database; no cut-off is given here.

How the values were obtained:
Bacillus subtilis = assay: Antibacterial activity against Bacillus subtilis BNCC336690 assessed as inhibition of bacterial growth incubated for 18 hrs by CLSI protocol based microbroth dilution method; format: functional
Escherichia coli [1] = assay: Antibacterial activity against penicillin-susceptible Escherichia coli ATCC25922 assessed as inhibition of bacterial growth incubated for 18 hrs by CLSI protocol based microbroth dilution method; format: functional
Staphylococcus aureus [2] = assay: Bactericidal activity against methicillin-resistant Staphylococcus aureus ATCC43300 incubated for 24 hrs by CLSI protocol based microbroth dilution method; format: functional
Staphylococcus aureus [3] = assay: Selectivity ratio of MBC for bactericidal activity against methicillin-resistant Staphylococcus aureus ATCC43300 to MIC for antibacterial activity against methicillin-resistant Staphylococcus aureus ATCC43300; format: functional
Escherichia coli [4] = assay: Antibacterial activity against penicillin-susceptible Escherichia coli ATCC25922 assessed as log reduction in bacterial count measured after 8 hrs by time kill kinetics assay; format: functional, organism-based
Cell membrane [5] = assay: Disruption of cell membrane integrity in methicillin-resistant Staphylococcus aureus ATCC43300 assessed as morphological deformation at 4 times of MIC incubated for 2 hrs by transmission electron microscopic analysis; format: cell membranes
Cell membrane [6] = assay: Disruption of cell membrane integrity in methicillin-resistant Staphylococcus aureus ATCC43300 assessed as ghost cell formation at 4 times of MIC incubated for 2 hrs by transmission electron microscopic analysis; format: cell membranes
Cell membrane [7] = assay: Disruption of cell membrane integrity in methicillin-resistant Staphylococcus aureus ATCC43300 assessed as appearance of collapsed cells at 4 times of MIC incubated for 2 hrs by transmission electron microscopic analysis; format: cell membranes
Cell membrane [8] = assay: Disruption of cell membrane integrity in methicillin-resistant Staphylococcus aureus ATCC43300 assessed as appearance of striated structures at 4 times of MIC incubated for 2 hrs by scanning electron microscopic analysis; format: cell membranes
Cell membrane [9] = assay: Disruption of cell membrane integrity in penicillin-susceptible Escherichia coli ATCC25922 at 4 times of MIC incubated for 2 hrs by scanning electron microscopic analysis; format: cell membranes
Escherichia coli [10] = assay: Induction of morphological changes in penicillin-susceptible Escherichia coli ATCC25922 assessed as cell elongation at 0.5 times of MIC incubated for 4 hrs by optical microscopic analysis; format: functional, organism-based
[11] = biological target: T1, Cell division protein FtsZ (Escherichia coli K-12) (UniProt P0A9A6); assay: Induction of recombinant FtsZ polymerization in penicillin-susceptible Escherichia coli ATCC25922 assessed as stabilization of FtsZ polymers at 1 to 4 microg/ml incubated for 10 mins by light scattering assay; details: filed as activator, dose 1-4 µg/ml
T1 sequence (whole entry): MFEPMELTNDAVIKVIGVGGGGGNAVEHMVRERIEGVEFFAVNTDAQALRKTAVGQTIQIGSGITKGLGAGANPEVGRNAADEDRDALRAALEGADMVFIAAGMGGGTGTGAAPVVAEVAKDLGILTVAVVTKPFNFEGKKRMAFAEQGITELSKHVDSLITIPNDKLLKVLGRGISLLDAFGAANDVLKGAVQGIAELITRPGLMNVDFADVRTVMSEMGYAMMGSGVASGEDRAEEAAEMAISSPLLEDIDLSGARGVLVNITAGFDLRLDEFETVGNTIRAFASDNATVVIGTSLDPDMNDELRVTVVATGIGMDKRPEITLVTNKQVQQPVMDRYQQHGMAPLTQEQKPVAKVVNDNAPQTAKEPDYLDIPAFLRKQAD

[12] = biological target: T2, Cell division protein FtsZ (Staphylococcus aureus) (UniProt P0A031); assay: Induction of FtsZ polymerization in methicillin-resistant Staphylococcus aureus ATCC43300 assessed as increase in size of assembly at 4 microg/ml preincubated for 10 mins followed by GTP addition and measured after 15 mins by transmission electron microscopic analysis; details: filed as activator, dose 4.0 µg/ml, time 25.0 min
T2 sequence (whole entry): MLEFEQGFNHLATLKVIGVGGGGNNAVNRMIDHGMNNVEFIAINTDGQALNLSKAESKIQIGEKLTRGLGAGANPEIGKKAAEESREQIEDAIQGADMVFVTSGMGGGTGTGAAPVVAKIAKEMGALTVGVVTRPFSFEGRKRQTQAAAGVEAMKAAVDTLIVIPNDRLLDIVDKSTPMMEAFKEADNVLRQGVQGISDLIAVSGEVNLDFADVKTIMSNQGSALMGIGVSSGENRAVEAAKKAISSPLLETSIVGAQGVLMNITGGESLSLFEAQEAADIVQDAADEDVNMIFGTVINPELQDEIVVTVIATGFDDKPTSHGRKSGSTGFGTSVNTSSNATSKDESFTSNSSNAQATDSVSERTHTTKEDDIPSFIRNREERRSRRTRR

[13] = biological target: T2, Cell division protein FtsZ (Staphylococcus aureus); assay: Induction of FtsZ polymerization in methicillin-resistant Staphylococcus aureus ATCC43300 assessed as bundling of FtsZ protofilaments at 4 microg/ml preincubated for 10 mins followed by GTP addition and measured after 15 mins by transmission electron microscopic analysis; details: filed as activator, dose 4.0 µg/ml, time 25.0 min
[14] = biological target: T1, Cell division protein FtsZ (Escherichia coli K-12); assay: Induction of FtsZ polymerization in penicillin-susceptible Escherichia coli ATCC25922 assessed as thicker bundles at 4 microg/ml preincubated for 10 mins followed by GTP addition and measured after 15 mins by transmission electron microscopic analysis; details: filed as activator, dose 4.0 µg/ml, time 25.0 min
[15] = biological target: T1, Cell division protein FtsZ (Escherichia coli K-12); assay: Enhancement of FtsZ GTPase activity in penicillin-susceptible Escherichia coli ATCC25922 upto 8 microg/ml incubated for 30 mins by malachite green phosphate based assay relative to control; details: dose <= 8.0 µg/ml
Erythrocyte = assay: Hemolytic activity in human erythrocytes at 0.195 to 25 microg/ml incubated for 1 hrs by absorbance based assay; format: toxicity, cell-based; details: dose 0.195-25 µg/ml
Escherichia coli [16] = assay: Antibacterial activity against penicillin-susceptible Escherichia coli ATCC25922 assessed as reduction in bacterial growth at 0.5 times of MIC incubated for 18 to 24 hrs and measured after 25 passages by drug resistance assay; format: functional, organism-based
Escherichia coli [17] = assay: Antibacterial activity against penicillin-susceptible Escherichia coli ATCC25922 assessed as reduction in bacterial count incubated for 24 hrs by time kill kinetics assay; format: functional, organism-based
Escherichia coli [18] = assay: Antibacterial activity against penicillin-susceptible Escherichia coli ATCC25922 assessed as log reduction in bacterial count at 4 times of MIC measured after 1 hrs by time kill kinetics assay; format: functional
Escherichia coli [19] = assay: Antibacterial activity against penicillin-susceptible Escherichia coli ATCC25922 assessed as log reduction in bacterial count at 4 times of MIC measured after 24 hrs by time kill kinetics assay; format: functional, organism-based
Escherichia coli [20] = assay: Antibacterial activity against penicillin-susceptible Escherichia coli ATCC25922 assessed as log reduction in bacterial count at 1 times of MIC measured after 2 hrs by time kill kinetics assay; format: functional, organism-based
Escherichia coli [21] = assay: Drug resistance, ratio of MIC for penicillin-susceptible Escherichia coli ATCC25922 incubated for 18 to 24 hrs and measured after 21 passages to MIC for penicillin-susceptible Escherichia coli ATCC25922 measured after 18 to 24 hrs; format: functional
Cell membrane [22] = assay: Disruption of cell membrane integrity in methicillin-resistant Staphylococcus aureus ATCC43300 assessed as leakage of intracellular contents at 4 times of MIC incubated for 2 hrs by transmission electron microscopic analysis; format: cell membranes
[23] = Cytotoxicity against mouse RAW264.7 cells assessed as cell viability at 6.25 microg/ml incubated for 24 hrs by CCK8 assay relative to control; format: toxicity, cell-based; details: at 6.25 µg/mL, read-out: Activity

Row | Compound | MIC (Bacillus subtilis) [µg/mL] | MIC (Escherichia coli [1]) [µg/mL] | MBC (Staphylococcus aureus [2]) [µg/mL] | Selectivity ratio (Staphylococcus aureus [3]) | Activity (Cell membrane [5]) | Activity (Cell membrane [6]) | Activity (Cell membrane [7]) | Activity (Cell membrane [8]) | Activity (Cell membrane [9]) | Activity (Escherichia coli [10]) | Activity [11] | Activity [12] | Activity [13] | Activity [14] | Activity [15] [%] | Activity (Erythrocyte) | other results
1 | O=C1c2ccccc2-[n+]2ccc3c([nH]c4ccc(-c5ccccc5F)cc43)c21.[Cl-] | 0.024 | 6.25 | 0.195 | 1 | Active | Active | Active | Active | Active | Active | Active | Active | Active | Active | 10 | Non-Toxic | Activity (Escherichia coli [4]): inactive
2 | O=C1c2ccccc2-[n+]2ccc3c([nH]c4ccc(-c5ccccc5Cl)cc43)c21.[Cl-] | 0.049 | 12.5 | 1.56 | 1 | Active | Active | Active | Active | Active | Active | Active | Active | Active | Active | 10 | Non-Toxic | Activity (Escherichia coli [16]): Active
3 | O=C1c2ccccc2-[n+]2ccc3c([nH]c4ccc(-c5ccccc5C(F)(F)F)cc43)c21.[Cl-] | 0.024 | 12.5 | 1.56 | 1 | Active | Active | – | Active | Active | Active | Active | Active | Active | Active | 10 | Non-Toxic | Activity (Escherichia coli [17]): Dose-Dependent Effect; Activity (Escherichia coli [18]): 3 log10CFU/ml; Activity (Escherichia coli [19]): Active; Activity (Escherichia coli [20]): inactive; Ratio (Escherichia coli [21]): 12; Activity (Cell membrane [22]): Active; viability at 24 h, 6.25 microg/ml [23]: 57%
